In patent US20020137929A1, “1 - (3-heterocyclylphenyl) isothiourea, -isourea, -guanidine and -amidine herbicidal agents” (Intellectual Property Department, BASF Aktiengesellschaft, priority 1998, published 2002):

Experiments:
ABUTH (Velvetleaf) [1] = experiment: Postemergence herbicidal evaluation; assay type: in vivo, Abutilon theophrasti; conditions: postemergence
Procedure, shortened: (§1)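 First, seedlings were raised for around two weeks. Next, test material in 50/50 acetone/water containing 0.5% TWEEN 20 was sprayed through a nozzle at 40 psi, equivalent to about 0.0156–0.500 kg/ha. Finally, after 4–5 weeks in the greenhouse, plants were rated 0–9.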

ABUTH (Velvetleaf) [2] = experiment: Preemergence herbicidal evaluation; assay type: in vivo, Abutilon theophrasti; conditions: rated 4-5 weeks after treatment, rating scale 0-9
Procedure, shortened: (§2)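 Each species is sown separately in potting soil over roughly an inch of soil before any emergence. The soil surface then receives an aqueous acetone spray delivering about 0.0156 to 0.500 kg/ha of compound. After four to five weeks, injury is scored from 0 to 9 relative to a control.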

CASOB (Sicklepod) = experiment: Preemergence herbicidal evaluation; assay type: in vivo, Cassia obtusifolia; conditions: rated 4-5 weeks after treatment, rating scale 0-9
Procedure, shortened: as §2

[3] = system: TRZAWR (Wheat, Winter, cv Riband); experiment: Preemergence herbicidal evaluation; assay type: in vivo, Triticum aestivum; conditions: rated 4-5 weeks after treatment, rating scale 0-9
Procedure, shortened: as §2

[4] = system: CHEAL (Lambsquarters, Common); experiment: Preemergence herbicidal evaluation; assay type: in vivo, Chenopodium album; conditions: rated 4-5 weeks after treatment, rating scale 0-9
Procedure, shortened: as §2

[5] = system: IPOHE (Morningglory, Ivyleaf); experiment: Preemergence herbicidal evaluation; assay type: in vivo, Ipomoea hederacea; conditions: rated 4-5 weeks after treatment, rating scale 0-9
Procedure, shortened: as §2

ECHCG (Barnyardgrass) [6] = experiment: Preemergence herbicidal evaluation; assay type: in vivo, Echinochloa crus-galli; conditions: rated 4-5 weeks after treatment, rating scale 0-9
Procedure, shortened: as §2

SETVI (Foxtail, Green) = experiment: Postemergence herbicidal evaluation; assay type: in vivo, Setaria viridis; conditions: postemergence
Procedure, shortened: as §1

ECHCG (Barnyardgrass) [7] = experiment: Postemergence herbicidal evaluation; assay type: in vivo, Echinochloa crus-galli; conditions: postemergence
Procedure, shortened: as §1

ORYSAT (Rice, Tebonnet) = experiment: Postemergence herbicidal evaluation; assay type: in vivo, Oryza sativa, (L.) Tebonnet; conditions: postemergence
Procedure, shortened: as §1

[8] = system: CHEAL (Lambsquarters, Common); experiment: Postemergence herbicidal evaluation; assay type: in vivo, Chenopodium album; conditions: postemergence
Procedure, shortened: as §1

ZEAMX (Corn, Field) [9] = experiment: Postemergence herbicidal evaluation; assay type: in vivo, Zea mays; conditions: postemergence
Procedure, shortened: as §1

[10] = system: GLXMAW (Soybean, Williams); experiment: Preemergence herbicidal evaluation; assay type: in vivo, Glycine max, (L.) Merr. cv Williams; conditions: rated 4-5 weeks after treatment, rating scale 0-9
Procedure, shortened: as §2

ZEAMX (Corn, Field) [11] = experiment: Preemergence herbicidal evaluation; assay type: in vivo, Zea mays; conditions: rated 4-5 weeks after treatment, rating scale 0-9
Procedure, shortened: as §2

[12] = system: IPOHE (Morningglory, Ivyleaf); experiment: Postemergence herbicidal evaluation; assay type: in vivo, Ipomoea hederacea; conditions: postemergence
Procedure, shortened: as §1

For `COc1cccc(CN2C(=O)CSC2=Nc2cc(-n3c(=O)cc(C(F)(F)F)n(C)c3=O)c(F)cc2Cl)c1` [Compound 137, 3-{4-Chloro-2-fluoro-5-{[3-(m-methoxybenzyl)-4-oxo-2-thiazolidinylidene]amino}phenyl}-1-methyl-6-(trifluoromethyl)-2,4(1H,3H)-pyrimidinedione], the “herbicidal rating ABUTH” value (ABUTH (Velvetleaf) [1]; rate 0.0156 kg/ha) was 9.0, the “herbicidal rating ABUTH” value (ABUTH (Velvetleaf) [1]; rate 0.0313 kg/ha) was 9.0 and the “herbicidal rating ABUTH” value (ABUTH (Velvetleaf) [1]; rate 0.0625 kg/ha) was 9.0. The “Preemergence herbicidal rating ABUTH” value (ABUTH (Velvetleaf) [2]; rate 0.0625 kg/ha) was 0.0, the “Preemergence herbicidal rating ABUTH” value (ABUTH (Velvetleaf) [2]; rate 0.1250 kg/ha) was 0.0 and the “Preemergence herbicidal rating ABUTH” value (ABUTH (Velvetleaf) [2]; rate 0.2500 kg/ha) was 9.0. The “Preemergence herbicidal rating CASOB” value (CASOB (Sicklepod); rate 0.0625 kg/ha) was 0.0, the “Preemergence herbicidal rating CASOB” value (CASOB (Sicklepod); rate 0.1250 kg/ha) was 0.0 and the “Preemergence herbicidal rating CASOB” value (CASOB (Sicklepod); rate 0.2500 kg/ha) was 0.0. The “Preemergence herbicidal rating TRZAWR” value ([3]; rate 0.0625 kg/ha) was 0.0, the “Preemergence herbicidal rating TRZAWR” value ([3]; rate 0.1250 kg/ha) was 0.0 and the “Preemergence herbicidal rating TRZAWR” value ([3]; rate 0.2500 kg/ha) was 0.0. The “Preemergence herbicidal rating CHEAL” value ([4]; rate 0.0625 kg/ha) was 9.0, the “Preemergence herbicidal rating CHEAL” value ([4]; rate 0.1250 kg/ha) was 9.0 and the “Preemergence herbicidal rating CHEAL” value ([4]; rate 0.2500 kg/ha) was 9.0. For the same compound, the “Preemergence herbicidal rating IPOHE” value ([5]; rate 0.0625 kg/ha) was 0.0, the “Preemergence herbicidal rating IPOHE” value ([5]; rate 0.1250 kg/ha) was 0.0 and the “Preemergence herbicidal rating IPOHE” value ([5]; rate 0.2500 kg/ha) was 1.0. For the same compound, the “Preemergence herbicidal rating ECHCG” value (ECHCG (Barnyardgrass) [6]; rate 0.0625 kg/ha) was 0.0, the “Preemergence herbicidal rating ECHCG” value (ECHCG (Barnyardgrass) [6]; rate 0.1250 kg/ha) was 0.0 and the “Preemergence herbicidal rating ECHCG” value (ECHCG (Barnyardgrass) [6]; rate 0.2500 kg/ha) was 0.0. The “herbicidal rating SETVI” value (SETVI (Foxtail, Green); rate 0.0156 kg/ha) was 1.0, the “herbicidal rating SETVI” value (SETVI (Foxtail, Green); rate 0.0313 kg/ha) was 1.0 and the “herbicidal rating SETVI” value (SETVI (Foxtail, Green); rate 0.0625 kg/ha) was 3.0. The “herbicidal rating ECHCG” value (ECHCG (Barnyardgrass) [7]; rate 0.0156 kg/ha) was 2.0, the “herbicidal rating ECHCG” value (ECHCG (Barnyardgrass) [7]; rate 0.0313 kg/ha) was 1.0 and the “herbicidal rating ECHCG” value (ECHCG (Barnyardgrass) [7]; rate 0.0625 kg/ha) was 3.0. For the same compound, the “herbicidal rating ORYSAT” value (ORYSAT (Rice, Tebonnet); rate 0.0156 kg/ha) was 3.0, the “herbicidal rating ORYSAT” value (ORYSAT (Rice, Tebonnet); rate 0.0313 kg/ha) was 3.0 and the “herbicidal rating ORYSAT” value (ORYSAT (Rice, Tebonnet); rate 0.0625 kg/ha) was 3.5. For the same compound, the “herbicidal rating CHEAL” value ([8]; rate 0.0156 kg/ha) was 6.0, the “herbicidal rating CHEAL” value ([8]; rate 0.0313 kg/ha) was 9.0 and the “herbicidal rating CHEAL” value ([8]; rate 0.0625 kg/ha) was 9.0. The “herbicidal rating ZEAMX” value (ZEAMX (Corn, Field) [9]; rate 0.0156 kg/ha) was 4.0, the “herbicidal rating ZEAMX” value (ZEAMX (Corn, Field) [9]; rate 0.0313 kg/ha) was 4.0 and the “herbicidal rating ZEAMX” value (ZEAMX (Corn, Field) [9]; rate 0.0625 kg/ha) was 4.0. The “Preemergence herbicidal rating GLXMAW” value ([10]; rate 0.0625 kg/ha) was 0.0, the “Preemergence herbicidal rating GLXMAW” value ([10]; rate 0.1250 kg/ha) was 0.0 and the “Preemergence herbicidal rating GLXMAW” value ([10]; rate 0.2500 kg/ha) was 1.0. The “Preemergence herbicidal rating ZEAMX” value (ZEAMX (Corn, Field) [11]; rate 0.0625 kg/ha) was 0.0, the “Preemergence herbicidal rating ZEAMX” value (ZEAMX (Corn, Field) [11]; rate 0.1250 kg/ha) was 0.0 and the “Preemergence herbicidal rating ZEAMX” value (ZEAMX (Corn, Field) [11]; rate 0.2500 kg/ha) was 0.0. The “herbicidal rating IPOHE” value ([12]; rate 0.0156 kg/ha) was 9.0, the “herbicidal rating IPOHE” value ([12]; rate 0.0313 kg/ha) was 9.0 and the “herbicidal rating IPOHE” value ([12]; rate 0.0625 kg/ha) was 9.0.
